In PubChem BioAssay AID256 (DTP/NCI, 2004):
“And” between values parts separate entries of the source, which are not always exact repeats. Equal entries are not always repeated. Toxic doses and inconclusive results are not listed. How the source made its calls: active means survival T/C of 150% or more; inactive means T/C below 125% in these data. Non-standard residues stand in square brackets, D forms with d. Residues, ends and D or L forms follow the SMILES beside them. Deg = CCC(N)(CC)C(=O)O

System: CD2F1 mice, L1210 leukemia ip, survival T/C
Assay: NCI In Vivo Anticancer Drug Screen. Data for tumor model L1210 Leukemia (intraperitoneal) in CD2F1 (CDF1) mice
Conditions: higher = longer survival
Outline: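 Activity against a transplanted murine tumor was judged by comparing the compound group with a vehicle group. The outcome in the treated animals was divided by that in the controls.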

[1] = endpoint: mean survival time, dose: 100.0 mg/kg/injection, schedule: Q01DX009 (ip), vehicle: saline with Tween-80
[2] = endpoint: mean survival time, dose: 100.0 mg/kg/injection, schedule: Q04DX003 (ip), vehicle: saline with Tween-80
[3] = endpoint: mean survival time, dose: 200.0 mg/kg/injection, schedule: Q01DX009 (ip), vehicle: saline with Tween-80
[4] = endpoint: mean survival time, dose: 200.0 mg/kg/injection, schedule: Q04DX003 (ip), vehicle: saline with Tween-80
[5] = endpoint: mean survival time, dose: 400.0 mg/kg/injection, schedule: Q01DX009 (ip), vehicle: saline with Tween-80
[6] = endpoint: mean survival time, dose: 400.0 mg/kg/injection, schedule: Q04DX003 (ip), vehicle: saline with Tween-80
[7] = endpoint: mean survival time, dose: 50.0 mg/kg/injection, schedule: Q01DX009 (ip), vehicle: saline with Tween-80
[8] = endpoint: mean survival time, dose: 100.0 mg/kg/injection, schedule: Q01DX009 (ip), vehicle: saline
[9] = endpoint: mean survival time, dose: 200.0 mg/kg/injection, schedule: Q01DX009 (ip), vehicle: saline
[10] = endpoint: mean survival time, dose: 100.0 mg/kg/injection, schedule: Q04DX002 (ip), vehicle: saline with Tween-80
[11] = endpoint: mean survival time, dose: 200.0 mg/kg/injection, schedule: Q04DX002 (ip), vehicle: saline with Tween-80
[12] = endpoint: mean survival time, dose: 400.0 mg/kg/injection, schedule: Q04DX002 (ip), vehicle: saline with Tween-80

Measured: T/C

O=c1cc(CCl)nc2c3ncn(C4OC(CO)C(O)C4O)c3ncn12 (stereo unspecified)
inactive: endpoint: median survival time, dose: 12.5 mg/kg/injection, schedule: Q01DX005 (ip), vehicle: saline with Tween-80 105 % of control | endpoint: median survival time, dose: 25.0 mg/kg/injection, schedule: Q01DX005 (ip), vehicle: saline with Tween-80 102 % of control | endpoint: median survival time, dose: 50.0 mg/kg/injection, schedule: Q01DX005 (ip), vehicle: saline with Tween-80 98 % of control | endpoint: median survival time, dose: 100.0 mg/kg/injection, schedule: Q01DX005 (ip), vehicle: saline with Tween-80 95 % of control | endpoint: median survival time, dose: 200.0 mg/kg/injection, schedule: Q01DX005 (ip), vehicle: saline with Tween-80 98 % of control

O=C(c1ccc(-c2ccccc2)cc1)C1C(c2ccccc2)N1C1CCCCC1 (stereo unspecified)
inactive: endpoint: mean survival time, dose: 12.5 mg/kg/injection, schedule: Q01DX009 (ip), vehicle: other 102 % of control and 96 % of control | endpoint: mean survival time, dose: 25.0 mg/kg/injection, schedule: Q01DX001 (ip), vehicle: water 96 % of control and 98 % of control | endpoint: mean survival time, dose: 25.0 mg/kg/injection, schedule: Q01DX009 (ip), vehicle: other 96 % of control and 97 % of control | endpoint: mean survival time, dose: 50.0 mg/kg/injection, schedule: Q01DX001 (ip), vehicle: water 88 % of control and 90 % of control | endpoint: mean survival time, dose: 50.0 mg/kg/injection, schedule: Q01DX009 (ip), vehicle: other 102 % of control and 88 % of control | endpoint: mean survival time, dose: 100.0 mg/kg/injection, schedule: Q01DX001 (ip), vehicle: water 95 % of control and 101 % of control | endpoint: mean survival time, dose: 100.0 mg/kg/injection, schedule: Q01DX009 (ip), vehicle: other 86 % of control and 97 % of control | endpoint: mean survival time, dose: 200.0 mg/kg/injection, schedule: Q01DX001 (ip), vehicle: water 90 % of control and 92 % of control | endpoint: mean survival time, dose: 200.0 mg/kg/injection, schedule: Q01DX009 (ip), vehicle: other 94 % of control | endpoint: mean survival time, dose: 400.0 mg/kg/injection, schedule: Q01DX001 (ip), vehicle: water 92 % of control

CCc1cccc[n+]1Cc1ccccc1
inactive: endpoint: mean survival time, dose: 3.13 mg/kg/injection, schedule: Q01DX009 (ip), vehicle: saline with Tween-80 95 % of control | endpoint: mean survival time, dose: 6.25 mg/kg/injection, schedule: Q01DX009 (ip), vehicle: saline with Tween-80 91 % of control | endpoint: mean survival time, dose: 12.5 mg/kg/injection, schedule: Q01DX009 (ip), vehicle: saline with Tween-80 98 % of control

COc1ccc2cc(O)ccc2c1
inactive: [1] 96 % of control | [2] 104 % of control | [3] 98 % of control | [4] 113 % of control | [5] 100 % of control | [6] 90 % of control

C(=N\Nc1nn[nH]n1)/c1ccccc1
inactive: endpoint: mean survival time, dose: 25.0 mg/kg/injection, schedule: Q01DX009 (ip), vehicle: saline with Tween-80 105 % of control | [7] 97 % of control | [1] 108 % of control

COc1cc(Cl)ccc1NC(=O)OCCOc1cccc(C)c1
inactive: [7] 93 % of control | [1] 101 % of control | [3] 93 % of control

OC1CCCCC1CCl (stereo unspecified)
inactive: endpoint: mean survival time, dose: 50.0 mg/kg/injection, schedule: Q01DX001 (ip), vehicle: carboxymethylcellulose (CMC) 103 % of control | endpoint: mean survival time, dose: 100.0 mg/kg/injection, schedule: Q01DX001 (ip), vehicle: carboxymethylcellulose (CMC) 97 % of control | endpoint: mean survival time, dose: 200.0 mg/kg/injection, schedule: Q01DX001 (ip), vehicle: carboxymethylcellulose (CMC) 97 % of control | endpoint: mean survival time, dose: 400.0 mg/kg/injection, schedule: Q01DX001 (ip), vehicle: carboxymethylcellulose (CMC) 103 % of control

NC(=S)NNC(N)=S
inactive: [1] 101 % of control | [2] 104 % of control | [3] 95 % of control | [4] 102 % of control | [5] 110 % of control | [6] 107 % of control

CCCCC(C(=O)OCC)C1=NC(C)(C)CC(C)O1 (stereo unspecified)
inactive: [8] 98 % of control | endpoint: mean survival time, dose: 100.0 mg/kg/injection, schedule: Q04DX003 (ip), vehicle: acetone 101 % of control | [9] 97 % of control | endpoint: mean survival time, dose: 200.0 mg/kg/injection, schedule: Q04DX003 (ip), vehicle: acetone 90 % of control | endpoint: mean survival time, dose: 400.0 mg/kg/injection, schedule: Q01DX009 (ip), vehicle: saline 97 % of control | endpoint: mean survival time, dose: 400.0 mg/kg/injection, schedule: Q04DX003 (ip), vehicle: acetone 91 % of control

S=C(NCCc1ccccc1)Nc1ccccc1
inactive: [2] 97 % of control | [4] 95 % of control | [6] 95 % of control

CCC(CC)(NC(=O)CN)C(=O)O (H-Gly-[Deg]-OH)
inactive: [10] 96 % of control | [11] 104 % of control | [12] 96 % of control

CN1CCCN(O)C1=O
inactive: endpoint: mean survival time, dose: 37.5 mg/kg/injection, schedule: Q01DX007 (ip), vehicle: saline 94 % of control | endpoint: mean survival time, dose: 75.0 mg/kg/injection, schedule: Q01DX007 (ip), vehicle: saline 92 % of control | endpoint: mean survival time, dose: 150.0 mg/kg/injection, schedule: Q01DX007 (ip), vehicle: saline 94 % of control | endpoint: mean survival time, dose: 300.0 mg/kg/injection, schedule: Q01DX007 (ip), vehicle: saline 100 % of control | endpoint: mean survival time, dose: 600.0 mg/kg/injection, schedule: Q01DX007 (ip), vehicle: saline 100 % of control

CCCC(C#N)(CCCl)c1ccccc1 (stereo unspecified)
inactive: [2] 101 % of control | [4] 101 % of control | [6] 96 % of control

O=C1c2ccccc2C(=O)N1C1CCCCC1
inactive: [2] 100 % of control | [4] 95 % of control | [6] 95 % of control

CN1CCN(C(=O)Nc2ccc(N=Nc3ccccc3)cc2)CC1
inactive: endpoint: mean survival time, dose: 25.0 mg/kg/injection, schedule: Q04DX003 (ip), vehicle: saline with Tween-80 95 % of control | endpoint: mean survival time, dose: 50.0 mg/kg/injection, schedule: Q04DX003 (ip), vehicle: saline with Tween-80 95 % of control | [2] 88 % of control

COC1=C2C[C@@H](C)C[C@@H](OC)[C@@H](O)[C@H](C)/C=C(\C)[C@@H](OC(N)=O)[C@H](OC)/C=C\C=C(/C)C(=O)NC(=CC1=O)C2=O
inactive: endpoint: mean survival time, dose: 0.12 mg/kg/injection, schedule: Q01DX009 (ip), vehicle: saline with Tween-80 102 % of control | endpoint: mean survival time, dose: 0.25 mg/kg/injection, schedule: Q01DX009 (ip), vehicle: saline with Tween-80 102 % of control | endpoint: mean survival time, dose: 0.5 mg/kg/injection, schedule: Q01DX009 (ip), vehicle: saline with Tween-80 98 % of control | endpoint: mean survival time, dose: 1.0 mg/kg/injection, schedule: Q01DX009 (ip), vehicle: saline with Tween-80 101 % of control | endpoint: mean survival time, dose: 2.0 mg/kg/injection, schedule: Q01DX009 (ip), vehicle: saline with Tween-80 112 % of control | endpoint: mean survival time, dose: 4.0 mg/kg/injection, schedule: Q01DX009 (ip), vehicle: saline with Tween-80 111 % of control | endpoint: mean survival time, dose: 5.0 mg/kg/injection, schedule: Q01DX001 (ip), vehicle: saline 104 % of control | endpoint: mean survival time, dose: 10.0 mg/kg/injection, schedule: Q01DX001 (ip), vehicle: saline 107 % of control

COc1cc2c(cc1OC)C1Cc3ccc4cc(OC)c(OC)cc4c3CN1CC2 (stereo unspecified)
inactive: [8] 94 % of control | [2] 102 % of control | [4] 93 % of control | [6] 94 % of control

CC(Br)C(C)Br (stereo unspecified)
inactive: endpoint: mean survival time, dose: 50.0 mg/kg/injection, schedule: Q01DX009 (ip), vehicle: saline 103 % of control | [8] 95 % of control | [9] 100 % of control

COc1c(C)c2c(c3c1CC(=O)O3)C(=O)OC2
inactive: [10] 108 % of control | [11] 112 % of control | [12] 112 % of control

O=C(NC(C(=O)O)c1ccccc1)OCc1ccccc1 (stereo unspecified)
inactive: [2] 102 % of control | [4] 107 % of control | [6] 97 % of control

CC1=CC=CC2=NC(=O)CCN12
inactive: [1] 104 % of control | [2] 105 % of control | [3] 106 % of control | [4] 102 % of control | [5] 103 % of control | [6] 103 % of control

COc1ccc([C@@H]2c3cc4c(cc3C[C@H]3COC(=O)[C@@H]32)OCO4)cc1OC
inactive: endpoint: mean survival time, dose: 11.0 mg/kg/injection, schedule: Q01DX009 (ip), vehicle: saline with Tween-80 110 % of control | endpoint: mean survival time, dose: 22.0 mg/kg/injection, schedule: Q01DX009 (ip), vehicle: saline with Tween-80 110 % of control | endpoint: mean survival time, dose: 33.0 mg/kg/injection, schedule: Q01DX009 (ip), vehicle: saline with Tween-80 109 % of control | endpoint: mean survival time, dose: 67.0 mg/kg/injection, schedule: Q01DX009 (ip), vehicle: saline with Tween-80 107 % of control

CN(C)Cc1cc(OCc2ccccc2)cc(CN(C)C)c1O
inactive: endpoint: mean survival time, dose: 75.0 mg/kg/injection, schedule: Q01DX001 (ip), vehicle: saline 108 % of control

CCCCCCOC(=O)C(O)c1ccccc1 (stereo unspecified)
inactive: [2] 103 % of control | [4] 103 % of control | [6] 97 % of control
